Experimental data taken from patent US20250320213A1, “Nitrogen-Containing Heterocyclic Compounds” (Pfizer Inc., priority 2024, published 2025).

Experiments:
STAT6 = target: T1, STAT6 (Homo sapiens, UniProt P42226); assay: STAT6 Reporter Luciferase Assay (IL-13 stimulated HaCaT keratinocyte NanoLuc reporter cells); assay type: cell-based; details: IL-13 stimulated HaCaT STAT6 NanoLuc reporter cells; read-out: Reporter EC50
T1 construct: stably transfected HaCaT keratinocyte cell line, which expresses NanoLuc luciferase reporter gene under the transcriptional control of the STAT6 responsive promoter; endogenous in cells; host or cells: HaCaT keratinocyte reporter cell line (stably transfected with a NanoLuc reporter)
T1 sequence (P42226 1-847): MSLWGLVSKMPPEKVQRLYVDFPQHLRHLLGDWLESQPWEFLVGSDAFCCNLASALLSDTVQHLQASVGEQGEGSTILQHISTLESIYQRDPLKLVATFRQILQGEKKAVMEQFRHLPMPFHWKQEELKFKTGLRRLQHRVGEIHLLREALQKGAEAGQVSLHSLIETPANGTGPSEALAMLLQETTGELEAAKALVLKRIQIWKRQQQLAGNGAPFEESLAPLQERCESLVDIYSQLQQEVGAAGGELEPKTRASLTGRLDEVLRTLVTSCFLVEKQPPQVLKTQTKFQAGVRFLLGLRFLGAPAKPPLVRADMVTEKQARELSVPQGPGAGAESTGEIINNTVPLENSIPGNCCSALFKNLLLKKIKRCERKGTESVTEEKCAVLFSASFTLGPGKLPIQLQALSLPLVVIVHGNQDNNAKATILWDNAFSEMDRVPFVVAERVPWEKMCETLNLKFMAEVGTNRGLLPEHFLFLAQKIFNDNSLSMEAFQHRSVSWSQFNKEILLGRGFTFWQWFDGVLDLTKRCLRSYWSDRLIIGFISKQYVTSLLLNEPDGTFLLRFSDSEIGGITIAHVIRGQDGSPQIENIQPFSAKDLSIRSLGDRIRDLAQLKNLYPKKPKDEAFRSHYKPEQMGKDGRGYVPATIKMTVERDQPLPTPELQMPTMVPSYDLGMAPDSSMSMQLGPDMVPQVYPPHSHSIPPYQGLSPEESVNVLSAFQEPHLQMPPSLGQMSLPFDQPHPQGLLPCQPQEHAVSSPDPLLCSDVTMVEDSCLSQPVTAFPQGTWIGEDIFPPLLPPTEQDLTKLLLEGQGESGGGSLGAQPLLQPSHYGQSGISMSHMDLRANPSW
Outline: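 Stably transfected HaCaT cells carrying NanoLuc under the STAT6-responsive IL-13Ra2 promoter were pre-treated with compound (11-point, 4-fold series, duplicate) for 2 h at 37 °C, then stimulated with 0.12 nM IL-13 for 4 h. Nano-Glo luminescence was read after 15 min.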

[1] = system: CCL17 secretion in peripheral human whole blood; assay: Human Whole Blood (HWB) CCL17 TR-FRET Assay (IL-13 stimulated CCL17 secretion); assay type: cell-based; details: human whole blood
Outline: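 Compounds are titrated (11 points, 3-fold, duplicate) into fresh heparinized human whole blood and held 2 h at 37 °C before IL-13 challenge (10 ng/mL final). After 48 h at 37 °C, serum CCL17 is measured by TR-FRET sandwich assay and IC50 values are calculated.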

[2] = Homo sapiens, 48 h, IL-13 stimulated
[3] = Homo sapiens, 48 h, 10 ng/mL IL13, 48 hours

| EC50 (STAT6) [µM] | IC50 ([1]; IL-13 stimulated, 48 hours) [µM] | IC50 [1, 2] [µM] | IC50 ([1]; 10 ng/mL IL13, 48 hours) [µM] | IC50 [1, 3] [µM] | SMILES |
| --- | --- | --- | --- | --- | --- |
| 0.0518 | 0.682 |  |  |  | CCn1nc(C(=O)NCc2ccc(NC(=O)N(C)C)cc2)c2c1C(C(F)(F)F)CN(c1ncc(C(=O)N(C)C)cn1)C2 (single isomer, unassigned) [Example 465, rel-(R or S)-5-(5-(dimethylcarbamoyl)pyrimidin-2-yl)-N-(4-(3,3-dimethylureido)benzyl)-1-ethyl-7-(trifluoromethyl)-4,5,6,7-tetrahydro-1H-pyrazolo[4,3-c]pyridine-3-carboxamide] |
| 0.315 | 2.5 |  |  |  | CCn1nc(C(=O)NCc2ccc(C(=O)NC)cc2)c2c1C(C(F)(F)F)CN(c1ccc(C(=O)N(C)C)cn1)C2 (single isomer, unassigned) [Example 467, rel-(R or S)-5-(5-(dimethylcarbamoyl)pyridin-2-yl)-1-ethyl-N-(4-(methylcarbamoyl)benzyl)-7-(trifluoromethyl)-4,5,6,7-tetrahydro-1H-pyrazolo[4,3-c]pyridine-3-carboxamide] |
| 0.0022 | 0.012 |  |  |  | CCn1nc(C(=O)NCc2ccc(C(=O)NC)cc2)c2c1C(C(F)(F)F)CN(c1ccc(C(=O)N(C)C)cn1)C2 (single isomer, unassigned) [Example 468, rel-(R or S)-5-(5-(dimethylcarbamoyl)pyridin-2-yl)-1-ethyl-N-(4-(methylcarbamoyl)benzyl)-7-(trifluoromethyl)-4,5,6,7-tetrahydro-1H-pyrazolo[4,3-c]pyridine-3-carboxamide] |
| 0.04 | 0.085 |  |  |  | CC(C)n1nc(C(=O)NCc2ccc(NC(=O)N(C)C)cc2)c2c1C(O)CN(c1ccc(C(=O)N(C)C)cn1)C2 (single isomer, unassigned) [Example 474, rel-(R or S)-5-(5-(dimethylcarbamoyl)pyridin-2-yl)-N-(4-(3,3-dimethylureido)benzyl)-7-hydroxy-1-isopropyl-4,5,6,7-tetrahydro-1H-pyrazolo[4,3-c]pyridine-3-carboxamide] |
| 0.072 | 0.215 |  |  |  | CC(C)n1nc(C(=O)NCc2ccc(NC(=O)N(C)C)cc2)c2c1C(O)CN(c1ccc(C(=O)N(C)C)cn1)C2 (single isomer, unassigned) [Example 475, rel-(R or S)-5-(5-(dimethylcarbamoyl)pyridin-2-yl)-N-(4-(3,3-dimethylureido)benzyl)-7-hydroxy-1-isopropyl-4,5,6,7-tetrahydro-1H-pyrazolo[4,3-c]pyridine-3-carboxamide] |
| 0.028 | 0.203 |  |  |  | CC(C)n1nc(C(=O)NCc2ccc(NC(=O)N(C)C)cc2)c2c1C(C(F)F)CN(c1ccc(C(=O)N(C)C)cn1)C2 (single isomer, unassigned) [Example 493, rel-(R or S)-7-(difluoromethyl)-5-(5-(dimethylcarbamoyl)pyridin-2-yl)-N-(4-(3,3-dimethylureido)benzyl)-1-isopropyl-4,5,6,7-tetrahydro-1H-pyrazolo[4,3-c]pyridine-3-carboxamide] |
| 0.0005 | 0.004 |  |  |  | CC(C)n1nc(C(=O)NCc2ccc(NC(=O)N(C)C)cc2)c2c1C(C(F)F)CN(c1ccc(C(=O)N(C)C)cn1)C2 (single isomer, unassigned) [Example 494, rel-(R or S)-7-(difluoromethyl)-5-(5-(dimethylcarbamoyl)pyridin-2-yl)-N-(4-(3,3-dimethylureido)benzyl)-1-isopropyl-4,5,6,7-tetrahydro-1H-pyrazolo[4,3-c]pyridine-3-carboxamide] |
| 0.002 |  | 0.014 |  |  | CC(C)n1nc(C(=O)NCc2ccc(NC(=O)N(C)C)cc2)c2c1CCN(c1ccc(C(=O)N(C)C)cn1)[C@@H]2C (single isomer, unassigned) [Example 506] |
| 0.136 |  | 1.65 |  |  | CC(C)n1nc(C(=O)NCc2ccc(NC(=O)N(C)C)cc2)c2c1CCN(c1ccc(C(=O)N(C)C)cn1)[C@H]2C (single isomer, unassigned) [Example 507] |
| 0.007 |  | 0.02 |  |  | CC(C)n1nc(C(=O)NCc2ccc(NC(=O)N(C)C)cc2)c2c1CCN(c1ncc(C(=O)N(C)C)cn1)[C@@H]2C (single isomer, unassigned) [Example 508] |
| 3.32 |  | 8.17 |  |  | CC(C)n1nc(C(=O)NCc2ccc(NC(=O)N(C)C)cc2)c2c1CCN(c1ncc(C(=O)N(C)C)cn1)[C@H]2C (single isomer, unassigned) [Example 509] |
| 1.52 |  | 8.83 |  |  | CCn1nc(C(=O)NCc2ccc(NC(=O)N(C)C)cc2)c2c1CCN(c1ncc(C(=O)N(C)C)cn1)[C@H]2C (single isomer, unassigned) [Example 510] |
| 0.006 |  | 0.029 |  |  | CCn1nc(C(=O)NCc2ccc(NC(=O)N(C)C)cc2)c2c1CCN(c1ncc(C(=O)N(C)C)cn1)[C@@H]2C (single isomer, unassigned) [Example 511] |
| 0.001 |  | 0.006 |  |  | CNC(=O)Nc1ccc(CNC(=O)c2nn(C(C)C)c3c2CN(c2ncc(-c4nccn4C)cn2)C[C@@H]3C)cc1 (single isomer, unassigned) [Example 515] |
| 8.87 |  |  | > 25.1 |  | CC[C@H]1c2c(C(=O)NCc3ccc(NC(=O)N(C)C)cc3)nn(C(C)C)c2CCN1c1ccc(C(=O)N(C)C)cn1 (single isomer, unassigned) [Example 527] |
| 0.017 |  |  | 0.067 |  | CC[C@H]1c2c(C(=O)NCc3ccc(NC(=O)N(C)C)cc3)nn(C(C)C)c2CCN1c1ccc(C(=O)N(C)C)cn1 (single isomer, unassigned) [Example 528] |
| 0.0001 |  |  |  | 0.004 | CC(C)n1nc(C(=O)NCc2ccc(NC(=O)N(C)C)cc2)c2c1[C@@H](C)CN(c1ccc(C(=O)N(C)C)cn1)[C@@H]2C (single isomer, unassigned) [Example 529] |
| 0.0002 |  |  | 0.005 |  | CC(C)c1nc(C(=O)NCc2ccc(NC(=O)N(C)C)cc2)c2n1C(C)CN(c1ccc(C(=O)N(C)C)cc1)C2 (single isomer, unassigned) [Example 538, rel-(R or S)-7-(4-(Dimethylcarbamoyl)phenyl)-N-(4-(3,3-dimethylureido)benzyl)-3-isopropyl-5-methyl-5,6,7,8-tetrahydroimidazo[1,5-a]pyrazine-1-carboxamide] |
| 0.013 |  |  | 0.072 |  | CC(C)c1nc(C(=O)NCc2ccc(NC(=O)N(C)C)cc2)c2n1C(C)CN(c1ccc(C(=O)N(C)C)cc1)C2 (single isomer, unassigned) [Example 539, rel-(R or S)-7-(4-(Dimethylcarbamoyl)phenyl)-N-(4-(3,3-dimethylureido)benzyl)-3-isopropyl-5-methyl-5,6,7,8-tetrahydroimidazo[1,5-a]pyrazine-1-carboxamide] |
| 0.0002 |  |  | 0.003 |  | CC(C)n1nc(C(=O)NCc2ccc(NC(=O)N(C)C)cc2)c2c1C(C(F)(F)F)CN(c1ccc(C(=O)N(C)C)cn1)C2 (single isomer, unassigned) [Example 547, rel-(R or S)-5-(5-(Dimethylcarbamoyl)pyridin-2-yl)-N-(4-(3,3-dimethylureido)benzyl)-1-isopropyl-7-(trifluoromethyl)-4,5,6,7-tetrahydro-1H-pyrazolo[4,3-c]pyridine-3-carboxamide] |
| 0.015 |  |  | 0.199 |  | CC(C)n1nc(C(=O)NCc2ccc(NC(=O)N(C)C)cc2)c2c1C(C(F)(F)F)CN(c1ccc(C(=O)N(C)C)cn1)C2 (single isomer, unassigned) [Example 548, rel-(R or S)-5-(5-(Dimethylcarbamoyl)pyridin-2-yl)-N-(4-(3,3-dimethylureido)benzyl)-1-isopropyl-7-(trifluoromethyl)-4,5,6,7-tetrahydro-1H-pyrazolo[4,3-c]pyridine-3-carboxamide] |
| 0.099 |  |  |  | 1.1 | CC(C)n1nc(C(=O)NCc2ccc(-c3ncc[nH]3)cc2)c2c1[C@H](C)CN(c1ncc(C(=O)N(C)C)cn1)C2 (single isomer, unassigned) [Example 549] |
| 0.011 |  |  |  | 0.085 | C[C@@H]1CN(c2ccc(C(=O)N(C)C)cn2)Cc2c(C(=O)NCc3ccc(NC(=O)N(C)C)cc3)nn(CC(F)(F)F)c21 (single isomer, unassigned) [Example 550] |
